Measured values: PubChem BioAssay (NCI)
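Abbreviation: GI50, concentration required for 50% inhibition of growth. TGI marks complete inhibition of growth.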

Assays:
Test in all cases: DTP human tumour cell line panel, 384-well format
786-0 renal = system: 786-0 renal
A498 renal = system: A498 renal
A549 NSCLC = system: A549 NSCLC
BT-549 breast = system: BT-549 breast
CCRF-CEM leukemia = system: CCRF-CEM leukemia
COLO 205 colon = system: COLO 205 colon
DU-145 prostate = system: DU-145 prostate
EKVX NSCLC = system: EKVX NSCLC
HCC-2998 colon = system: HCC-2998 colon
HCT-15 colon = system: HCT-15 colon
HL-60(TB) leukemia = system: HL-60(TB) leukemia
HOP-62 NSCLC = system: HOP-62 NSCLC
HOP-92 NSCLC = system: HOP-92 NSCLC
HS 578T breast = system: HS 578T breast
HT29 colon = system: HT29 colon
IGROV1 ovarian = system: IGROV1 ovarian
K-562 leukemia = system: K-562 leukemia
KM12 colon = system: KM12 colon
M14 melanoma = system: M14 melanoma
MALME-3M melanoma = system: MALME-3M melanoma
MCF7 breast = system: MCF7 breast
MDA-MB-231 breast = system: MDA-MB-231 breast
MDA-MB-435 melanoma = system: MDA-MB-435 melanoma
MDA-MB-468 breast = system: MDA-MB-468 breast
MOLT-4 leukemia = system: MOLT-4 leukemia
NCI-H23 lung = system: NCI-H23 lung
NCI-H322M lung = system: NCI-H322M lung
NCI-H522 lung = system: NCI-H522 lung
NCI/ADR-RES ovarian = system: NCI/ADR-RES ovarian
OVCAR-3 ovarian = system: OVCAR-3 ovarian
OVCAR-4 ovarian = system: OVCAR-4 ovarian
OVCAR-5 ovarian = system: OVCAR-5 ovarian
OVCAR-8 ovarian = system: OVCAR-8 ovarian
PC-3 prostate = system: PC-3 prostate
RPMI-8226 leukemia = system: RPMI-8226 leukemia
RXF 393 renal = system: RXF 393 renal
SF-268 CNS = system: SF-268 CNS
SF-295 CNS = system: SF-295 CNS
SF-539 CNS = system: SF-539 CNS
SK-MEL-28 melanoma = system: SK-MEL-28 melanoma
SK-MEL-5 melanoma = system: SK-MEL-5 melanoma
SK-OV-3 ovarian = system: SK-OV-3 ovarian
SN12C renal = system: SN12C renal
SNB-75 CNS = system: SNB-75 CNS
SR leukemia = system: SR leukemia
SW-620 colon = system: SW-620 colon
UACC-257 melanoma = system: UACC-257 melanoma
UACC-62 melanoma = system: UACC-62 melanoma
UO-31 renal = system: UO-31 renal

Work on `CC[C@H](Nc1nc(NCc2cnc(C)cc2C)c2ncn(C(C)C)c2n1)[C@@H](C)O` yielded a GI50 ([…]-0 renal) of 227 nM, a TGI (786-0 renal) of 657 nM and a GI50 (A498 renal) of 240 nM. For the same compound, the TGI (A498 renal) was 648 nM, the GI50 (A549 NSCLC) was 315 nM and the TGI (A549 NSCLC) was > 100000 nM. The GI50 (BT-549 breast) was 138 nM, the TGI (BT-549 breast) was 294 nM and the GI50 (CCRF-CEM leukemia) was 160 nM. The TGI (CCRF-CEM leukemia) was 307 nM, the GI50 (COLO 205 colon) was 206 nM and the TGI (COLO 205 colon) was 508 nM. The GI50 (DU-145 prostate) was 302 nM, the TGI (DU-145 prostate) was 1260 nM and the GI50 (EKVX NSCLC) was 267 nM. The TGI (EKVX NSCLC) was 757 nM, the GI50 (HCC-2998 colon) was 159 nM and the TGI (HCC-2998 colon) was 380 nM. It also gave a GI50 (HCT-15 colon) of 296 nM, a TGI (HCT-15 colon) of 817 nM and a GI50 (HL-60(TB) leukemia) of 148 nM. It also gave a TGI (HL-60(TB) leukemia) of 282 nM, a GI50 (HOP-62 NSCLC) of 225 nM and a TGI (HOP-62 NSCLC) of 638 nM. For the same compound, the GI50 (HOP-92 NSCLC) was 230 nM, the TGI (HOP-92 NSCLC) was 569 nM and the GI50 (HS 578T breast) was 134 nM. It also gave a TGI (HS 578T breast) of 291 nM, a GI50 (HT29 colon) of 198 nM and a TGI (HT29 colon) of 472 nM. It also gave a GI50 (IGROV1 ovarian) of 277 nM, a TGI (IGROV1 ovarian) of 797 nM and a GI50 (K-562 leukemia) of 286 nM. For the same compound, the TGI (K-562 leukemia) was 960 nM, the GI50 (KM12 colon) was 239 nM and the TGI (KM12 colon) was 737 nM. The GI50 (M14 melanoma) was 156 nM, the TGI (M14 melanoma) was 533 nM and the GI50 (MALME-3M melanoma) was 298 nM. For the same compound, the TGI (MALME-3M melanoma) was 967 nM, the GI50 (MCF7 breast) was 333 nM and the TGI (MCF7 breast) was 1330 nM. For the same compound, the GI50 (MDA-MB-231 breast) was 196 nM, the TGI (MDA-MB-231 breast) was 767 nM and the GI50 (MDA-MB-435 melanoma) was 245 nM. The TGI (MDA-MB-435 melanoma) was 693 nM, the GI50 (MDA-MB-468 breast) was 182 nM and the TGI (MDA-MB-468 breast) was 334 nM. It also gave a GI50 (MOLT-4 leukemia) of 184 nM, a TGI (MOLT-4 leukemia) of 334 nM and a GI50 (NCI-H23 lung) of 173 nM. The TGI (NCI-H23 lung) was 343 nM, the GI50 (NCI-H322M lung) was 226 nM and the TGI (NCI-H322M lung) was 501 nM. It also gave a GI50 (NCI-H522 lung) of 180 nM, a TGI (NCI-H522 lung) of 341 nM and a GI50 (NCI/ADR-RES ovarian) of 1540 nM. For the same compound, the TGI (NCI/ADR-RES ovarian) was 4670 nM, the GI50 (OVCAR-3 ovarian) was 232 nM and the TGI (OVCAR-3 ovarian) was 516 nM. It also gave a GI50 (OVCAR-4 ovarian) of 316 nM, a TGI (OVCAR-4 ovarian) of 1290 nM and a GI50 (OVCAR-5 ovarian) of 248 nM. It also gave a TGI (OVCAR-5 ovarian) of 691 nM, a GI50 (OVCAR-8 ovarian) of 225 nM and a TGI (OVCAR-8 ovarian) of 551 nM. It also gave a GI50 (PC-3 prostate) of 224 nM, a TGI (PC-3 prostate) of 594 nM and a GI50 (RPMI-8226 leukemia) of 149 nM. For the same compound, the TGI (RPMI-8226 leukemia) was 284 nM, the GI50 (RXF 393 renal) was 175 nM and the TGI (RXF 393 renal) was 349 nM. It also gave a GI50 (SF-268 CNS) of 166 nM, a TGI (SF-268 CNS) of 386 nM and a GI50 (SF-295 CNS) of 224 nM. For the same compound, the TGI (SF-295 CNS) was 522 nM, the GI50 (SF-539 CNS) was 185 nM and the TGI (SF-539 CNS) was 383 nM. It also gave a GI50 (SK-MEL-28 melanoma) of 163 nM, a TGI (SK-MEL-28 melanoma) of 335 nM and a GI50 (SK-MEL-5 melanoma) of 139 nM. The TGI (SK-MEL-5 melanoma) was 291 nM, the GI50 (SK-OV-3 ovarian) was 452 nM and the TGI (SK-OV-3 ovarian) was 3390 nM. It also gave a GI50 (SN12C renal) of 217 nM, a TGI (SN12C renal) of 487 nM and a GI50 (SNB-75 CNS) of 183 nM. The TGI (SNB-75 CNS) was 424 nM, the GI50 (SR leukemia) was 137 nM and the TGI (SR leukemia) was 269 nM. The GI50 (SW-620 colon) was 205 nM, the TGI (SW-620 colon) was 780 nM and the GI50 (UACC-257 melanoma) was 232 nM. The TGI (UACC-257 melanoma) was 445 nM, the GI50 (UACC-62 melanoma) was 171 nM and the TGI (UACC-62 melanoma) was 397 nM. The GI50 (UO-31 renal) was 353 nM and the TGI (UO-31 renal) was > 100000 nM.
